In the NIST ThermoML archive (doi:10.1021/je700260f):
Several values for one entry are separate records, joined by “and”; a condition that tells them apart may be missing. Equal values may be shown once.

Settings: Liquid, Vibrating tube method

FC(C(F)(F)F)C(F)(F)F [1,1,1,2,3,3,3-heptafluoropropane]
Settings	mass density
283.15 K, 34529 kPa	1579 kg/m3
283.15 K, 34530 kPa	1579 kg/m3
283.15 K, 34532 kPa	1579.1 kg/m3
283.15 K, 34533 kPa	1579 kg/m3
283.15 K, 34534 kPa	1579.1 kg/m3
283.15 K, 34535 kPa	1579.2 kg/m3
283.15 K, 34536 kPa	1579 kg/m3
283.15 K, 34538 kPa	1579 kg/m3 and 1579.1 kg/m3
283.15 K, 34540 kPa	1579.1 kg/m3
283.15 K, 34541 kPa	1579.1 kg/m3
283.16 K, 9519 kPa	1496 kg/m3
283.16 K, 9552 kPa	1496.3 kg/m3
283.16 K, 9579 kPa	1496.3 kg/m3
283.16 K, 9612 kPa	1496.4 kg/m3
283.16 K, 21379 kPa	1540.8 kg/m3
293.14 K, 783 kPa	1411.5 kg/m3
293.14 K, 832 kPa	1411.9 kg/m3
293.14 K, 869 kPa	1412.2 kg/m3
293.14 K, 911 kPa	1412.4 kg/m3
293.14 K, 943 kPa	1412.7 kg/m3
293.14 K, 980 kPa	1412.9 kg/m3
293.14 K, 1007 kPa	1413.2 kg/m3
293.14 K, 1048 kPa	1413.5 kg/m3
293.14 K, 1080 kPa	1413.6 kg/m3
293.14 K, 1113 kPa	1414 kg/m3
293.14 K, 1145 kPa	1414.1 kg/m3
293.14 K, 1191 kPa	1414.5 kg/m3
293.14 K, 1219 kPa	1414.6 kg/m3
293.14 K, 1252 kPa	1414.9 kg/m3
293.14 K, 1285 kPa	1415 kg/m3
293.14 K, 1319 kPa	1415.2 kg/m3
293.14 K, 1347 kPa	1415.6 kg/m3
293.14 K, 1380 kPa	1415.7 kg/m3
293.14 K, 1417 kPa	1415.9 kg/m3
293.14 K, 1446 kPa	1416.2 kg/m3
293.14 K, 1484 kPa	1416.4 kg/m3
293.14 K, 1514 kPa	1416.7 kg/m3
293.14 K, 1543 kPa	1417 kg/m3
293.14 K, 1583 kPa	1417.1 kg/m3
293.14 K, 1612 kPa	1417.3 kg/m3
293.14 K, 1754 kPa	1418.3 kg/m3
293.14 K, 1789 kPa	1418.7 kg/m3
293.14 K, 1824 kPa	1418.8 kg/m3
293.14 K, 1901 kPa	1419.3 kg/m3
293.14 K, 1941 kPa	1419.6 kg/m3
293.14 K, 1972 kPa	1419.8 kg/m3
293.14 K, 2001 kPa	1420.1 kg/m3
293.14 K, 2030 kPa	1420.1 kg/m3
293.14 K, 2059 kPa	1420.5 kg/m3
293.14 K, 2084 kPa	1420.5 kg/m3
293.14 K, 2104 kPa	1420.7 kg/m3
293.14 K, 2140 kPa	1421 kg/m3
293.14 K, 2164 kPa	1421 kg/m3
293.14 K, 2197 kPa	1421.3 kg/m3
293.14 K, 2221 kPa	1421.4 kg/m3
293.14 K, 2258 kPa	1421.7 kg/m3
293.14 K, 2291 kPa	1421.9 kg/m3
293.14 K, 2324 kPa	1422.2 kg/m3
293.14 K, 2349 kPa	1422.4 kg/m3
293.14 K, 2377 kPa	1422.7 kg/m3
293.14 K, 2402 kPa	1422.6 kg/m3
293.14 K, 2682 kPa	1424.5 kg/m3
293.14 K, 2707 kPa	1424.7 kg/m3
293.14 K, 2740 kPa	1424.9 kg/m3
293.14 K, 2766 kPa	1425.1 kg/m3
293.14 K, 2804 kPa	1425.4 kg/m3
293.14 K, 2829 kPa	1425.5 kg/m3
293.14 K, 2858 kPa	1425.8 kg/m3
293.14 K, 2883 kPa	1425.8 kg/m3
293.14 K, 2921 kPa	1426.1 kg/m3
293.14 K, 2959 kPa	1426.4 kg/m3
293.14 K, 2988 kPa	1426.7 kg/m3
293.14 K, 3018 kPa	1426.7 kg/m3
293.14 K, 3056 kPa	1426.9 kg/m3
293.14 K, 3082 kPa	1427.2 kg/m3
293.14 K, 3112 kPa	1427.3 kg/m3
293.14 K, 3147 kPa	1427.5 kg/m3
293.14 K, 3177 kPa	1427.8 kg/m3
293.14 K, 3211 kPa	1427.9 kg/m3
293.14 K, 3246 kPa	1428.2 kg/m3
293.14 K, 3290 kPa	1428.4 kg/m3
293.14 K, 3321 kPa	1428.7 kg/m3
293.14 K, 3360 kPa	1428.9 kg/m3
293.14 K, 3395 kPa	1429.1 kg/m3
293.14 K, 3426 kPa	1429.3 kg/m3
293.14 K, 3461 kPa	1429.4 kg/m3
293.14 K, 3502 kPa	1429.8 kg/m3
293.14 K, 3537 kPa	1430 kg/m3
293.14 K, 3573 kPa	1430.1 kg/m3
293.14 K, 3604 kPa	1430.4 kg/m3
293.14 K, 3631 kPa	1430.7 kg/m3
293.14 K, 3668 kPa	1430.7 kg/m3
293.14 K, 3690 kPa	1431.1 kg/m3
293.14 K, 3722 kPa	1431 kg/m3
293.14 K, 3750 kPa	1431.3 kg/m3
293.14 K, 3815 kPa	1431.8 kg/m3
293.14 K, 3876 kPa	1432.1 kg/m3
293.14 K, 4878 kPa	1438.3 kg/m3
293.14 K, 4910 kPa	1438.4 kg/m3
293.14 K, 4933 kPa	1438.5 kg/m3
293.14 K, 4965 kPa	1438.7 kg/m3
293.14 K, 4997 kPa	1438.9 kg/m3
293.14 K, 5029 kPa	1439.2 kg/m3
293.14 K, 7613 kPa	1453.4 kg/m3
293.14 K, 7636 kPa	1453.6 kg/m3
293.14 K, 7664 kPa	1453.8 kg/m3
293.14 K, 7697 kPa	1454 kg/m3
293.14 K, 7725 kPa	1454 kg/m3
293.14 K, 7758 kPa	1454.2 kg/m3
293.14 K, 7801 kPa	1454.4 kg/m3
293.14 K, 7862 kPa	1454.8 kg/m3
293.14 K, 7886 kPa	1454.8 kg/m3
293.14 K, 7919 kPa	1455.1 kg/m3
293.14 K, 7952 kPa	1455.3 kg/m3
293.14 K, 7995 kPa	1455.4 kg/m3
293.14 K, 8024 kPa	1455.6 kg/m3
293.14 K, 8053 kPa	1455.7 kg/m3
293.14 K, 8087 kPa	1455.9 kg/m3
293.14 K, 8111 kPa	1456.1 kg/m3
293.14 K, 8140 kPa	1456.2 kg/m3
293.14 K, 8183 kPa	1456.4 kg/m3
293.14 K, 8211 kPa	1456.6 kg/m3
293.14 K, 8240 kPa	1456.7 kg/m3
293.14 K, 8283 kPa	1456.9 kg/m3
293.14 K, 8312 kPa	1457.1 kg/m3
293.14 K, 8350 kPa	1457.4 kg/m3
293.14 K, 8380 kPa	1457.4 kg/m3
293.14 K, 8410 kPa	1457.7 kg/m3
293.14 K, 8447 kPa	1457.8 kg/m3
293.14 K, 8480 kPa	1457.9 kg/m3
293.14 K, 8509 kPa	1458.1 kg/m3
293.14 K, 8542 kPa	1458.3 kg/m3
293.14 K, 9213 kPa	1461.8 kg/m3
293.14 K, 9292 kPa	1462.1 kg/m3
293.14 K, 9327 kPa	1462.4 kg/m3
293.14 K, 9357 kPa	1462.4 kg/m3
293.14 K, 9402 kPa	1462.7 kg/m3
293.14 K, 9437 kPa	1462.7 kg/m3
293.14 K, 9481 kPa	1463 kg/m3
293.14 K, 9511 kPa	1463.2 kg/m3
293.14 K, 9547 kPa	1463.4 kg/m3
293.14 K, 9584 kPa	1463.5 kg/m3
293.14 K, 9615 kPa	1463.7 kg/m3
293.14 K, 9655 kPa	1464 kg/m3
293.14 K, 9695 kPa	1464.1 kg/m3
293.14 K, 9731 kPa	1464.2 kg/m3
293.14 K, 9771 kPa	1464.6 kg/m3
293.14 K, 9807 kPa	1464.6 kg/m3
293.14 K, 9843 kPa	1464.8 kg/m3
293.14 K, 9879 kPa	1464.9 kg/m3
293.14 K, 9915 kPa	1465.1 kg/m3
293.14 K, 9946 kPa	1465.3 kg/m3
293.14 K, 10356 kPa	1467.4 kg/m3
293.14 K, 10403 kPa	1467.6 kg/m3
293.14 K, 10428 kPa	1467.8 kg/m3
293.14 K, 10474 kPa	1467.9 kg/m3
293.14 K, 10520 kPa	1468.1 kg/m3
293.14 K, 11001 kPa	1470.5 kg/m3
293.14 K, 12780 kPa	1478.5 kg/m3
293.14 K, 12814 kPa	1478.8 kg/m3
293.14 K, 12854 kPa	1478.9 kg/m3
293.14 K, 12939 kPa	1479.2 kg/m3
293.14 K, 13996 kPa	1483.9 kg/m3
293.14 K, 14034 kPa	1484.1 kg/m3
293.14 K, 16570 kPa	1494.7 kg/m3
293.14 K, 16613 kPa	1494.8 kg/m3
293.14 K, 16642 kPa	1494.8 kg/m3
293.14 K, 16676 kPa	1495.1 kg/m3
293.14 K, 16710 kPa	1495.1 kg/m3
293.14 K, 16801 kPa	1495.6 kg/m3
293.14 K, 17585 kPa	1498.6 kg/m3
293.14 K, 17619 kPa	1498.8 kg/m3
293.14 K, 19526 kPa	1506.1 kg/m3
293.14 K, 19555 kPa	1506.3 kg/m3
293.14 K, 19593 kPa	1506.2 kg/m3
293.14 K, 20937 kPa	1511.3 kg/m3
293.14 K, 21424 kPa	1513.1 kg/m3
293.14 K, 21528 kPa	1513.4 kg/m3
293.14 K, 21563 kPa	1513.5 kg/m3
293.14 K, 21593 kPa	1513.7 kg/m3
293.14 K, 21629 kPa	1513.8 kg/m3
293.14 K, 21779 kPa	1514.5 kg/m3
293.14 K, 21810 kPa	1514.5 kg/m3
293.14 K, 21855 kPa	1514.7 kg/m3
293.14 K, 21896 kPa	1514.8 kg/m3
293.14 K, 23767 kPa	1521.3 kg/m3
293.14 K, 32750 kPa	1549.5 kg/m3
293.14 K, 32783 kPa	1549.7 kg/m3
293.14 K, 32817 kPa	1549.7 kg/m3
293.14 K, 32855 kPa	1549.9 kg/m3
293.14 K, 32884 kPa	1549.9 kg/m3
293.14 K, 32926 kPa	1550.1 kg/m3
293.14 K, 32970 kPa	1550.2 kg/m3
293.14 K, 32998 kPa	1550.3 kg/m3
293.14 K, 33036 kPa	1550.4 kg/m3
293.14 K, 33075 kPa	1550.3 kg/m3
293.14 K, 33109 kPa	1550.6 kg/m3
293.14 K, 33143 kPa	1550.6 kg/m3
293.14 K, 33182 kPa	1550.8 kg/m3
293.14 K, 33215 kPa	1550.9 kg/m3
293.14 K, 33255 kPa	1550.8 kg/m3
293.14 K, 33293 kPa	1551.1 kg/m3
293.14 K, 33323 kPa	1551.1 kg/m3
293.14 K, 33367 kPa	1551.3 kg/m3
293.14 K, 33406 kPa	1551.4 kg/m3
